Assay results taken from ChEMBL document CHEMBL6074623, “Carbamoylation at C-8 position of natural 3-arylcoumarin scaffold for the discovery of novel PARP-1 inhibitors with potent anticancer activity” (Eur J Med Chem, 2024).
Calls of active or inactive are those of the source. The calls are words filed in the database; no cut-off is given here.

How the values were obtained:
SUM149PT [1] = experiment: Induction of apoptosis in human SUM149PT cells assessed as viable cells at 2 uM incubated for 48 hrs by Annexin V-FITC/PI staining based flow cytometry (reference value: 96.1 %); format: functional; settings: read-out: Activity
MDA-MB-436 = experiment: Antiproliferative activity against human MDA-MB-436 cells assessed as inhibition of cell growth at 20 uM incubated for 48 hrs by MTT assay relative to control; format: functional
SUM149PT [2] = experiment: Induction of apoptosis in human SUM149PT cells assessed as viable cells at 0.5 uM incubated for 24 hrs by Annexin V-FITC/PI staining based flow cytometry (reference value: 93.7 %); format: functional; settings: read-out: Activity
SUM149PT [3] = experiment: Induction of ROS in human SUM149PT cells assessed as increase in fluorescence intensity at 2 uM incubated for 48 hrs by DCFH-DA staining based confocal laser scanning microscopic analysis relative to niraparib; format: functional, cell-based
SUM149PT [4] = experiment: Induction of cell cycle arrest in human SUM149PT cells assessed as accumulation of cells at G0/G1 phase at 0.1 uM incubated for 24 hrs by propidium iodide/RNase A staining based flow cytometry (reference value: 72.8 %); format: functional
SUM149PT [5] = experiment: Antiproliferative activity against human SUM149PT cells assessed as inhibition of cell growth incubated for 48 hrs by MTT assay; format: functional, cell-based
SUM149PT [6] = experiment: Induction of cell cycle arrest in human SUM149PT cells assessed as accumulation of cells at S phase at 0.5 uM incubated for 24 hrs by propidium iodide/RNase A staining based flow cytometry (reference value: 16.4 %); format: functional
SUM149PT [7] = experiment: Induction of apoptosis in human SUM149PT cells assessed as early apoptotic cells at 2 uM incubated for 48 hrs by Annexin V-FITC/PI staining based flow cytometry (reference value: 2.28 %); format: functional
CAPAN-1 [8] = experiment: Antiproliferative activity against human CAPAN-1 cells assessed as inhibition of cell growth incubated for 48 hrs by MTT assay; format: functional, cell-based; settings: CAPAN-1, 48 h
HCC1937 [9] = experiment: Antiproliferative activity against human HCC1937 cells assessed as inhibition of cell growth at 20 uM incubated for 48 hrs by MTT assay relative to control; format: functional
SUM149PT [10] = experiment: Antiproliferative activity against human SUM149PT cells assessed as inhibition of cell growth at 20 uM incubated for 48 hrs by MTT assay relative to control; format: functional
SUM149PT [11] = experiment: Induction of apoptosis in human SUM149PT cells assessed as necrotic cells at 0.1 uM incubated for 24 hrs by Annexin V-FITC/PI staining based flow cytometry (reference value: 1.27 %); format: functional
SUM149PT [12] = experiment: Induction of cell cycle arrest in human SUM149PT cells assessed as accumulation of cells at G0/G1 phase at 0.5 uM incubated for 48 hrs by propidium iodide/RNase A staining based flow cytometry (reference value: 69.2 %); format: functional
SUM149PT [13] = experiment: Induction of apoptosis in human SUM149PT cells assessed as upregulation of cleaved caspase-3 expression incubated for 48 hrs by Western blotting analysis; format: functional, cell-based
SUM149PT [14] = experiment: Induction of apoptosis in human SUM149PT cells assessed as early apoptotic cells at 0.5 uM incubated for 48 hrs by Annexin V-FITC/PI staining based flow cytometry (reference value: 2.28 %); format: functional
HCC1937 [15] = experiment: Antiproliferative activity against human HCC1937 cells assessed as inhibition of cell growth incubated for 48 hrs by MTT assay; format: functional, cell-based; settings: HCC1937, 48 h
SUM149PT [16] = experiment: Induction of apoptosis in human SUM149PT cells assessed as late apoptotic cells at 0.5 uM incubated for 48 hrs by Annexin V-FITC/PI staining based flow cytometry (reference value: 1.13 %); format: functional
SUM149PT [17] = experiment: Induction of apoptosis in human SUM149PT cells assessed as late apoptotic cells at 2 uM incubated for 24 hrs by Annexin V-FITC/PI staining based flow cytometry (reference value: 2.45 %); format: functional
SUM149PT [18] = experiment: Induction of DNA double strand breaks in human SUM149PT cells assessed as increase in gamma-H2AX level incubated for 48 hrs by Western blotting analysis; format: functional, cell-based
SUM149PT [19] = experiment: Induction of apoptosis in human SUM149PT cells assessed as early apoptotic cells at 0.1 uM incubated for 24 hrs by Annexin V-FITC/PI staining based flow cytometry (reference value: 2.59 %); format: functional
SUM149PT [20] = experiment: Induction of apoptosis in human SUM149PT cells assessed as viable cells at 0.1 uM incubated for 24 hrs by Annexin V-FITC/PI staining based flow cytometry (reference value: 93.7 %); format: functional; settings: read-out: Activity
Mitochondrial membrane [21] = experiment: Induction of mitochondrial membrane potential loss in human SUM149PT cells at 2 uM incubated for 48 hrs by JC-1 staining based confocal laser scanning microscopic analysis relative to niraparib
SUM149PT [22] = experiment: Induction of cell cycle arrest in human SUM149PT cells assessed as accumulation of cells at S phase at 0.5 uM incubated for 48 hrs by propidium iodide/RNase A staining based flow cytometry (reference value: 18.7 %); format: functional
[23] = target: Poly [ADP-ribose] polymerase 2 (Homo sapiens, UniProt Q9UGN5); experiment: Inhibition of PARP-2 in human SUM149PT cells incubated for 48 hrs by HRP-ELISA; format: cell-based
SUM149PT [24] = experiment: Induction of apoptosis in human SUM149PT cells assessed as necrotic cells at 0.5 uM incubated for 24 hrs by Annexin V-FITC/PI staining based flow cytometry (reference value: 1.27 %); format: functional
SUM149PT [25] = experiment: Induction of apoptosis in human SUM149PT cells assessed as necrotic cells at 2 uM incubated for 48 hrs by Annexin V-FITC/PI staining based flow cytometry (reference value: 0.51 %); format: functional
CAPAN-1 [26] = experiment: Antiproliferative activity against human CAPAN-1 cells assessed as inhibition of cell growth at 5 uM incubated for 48 hrs by MTT assay relative to control; format: functional
SUM149PT [27] = experiment: Induction of cell cycle arrest in human SUM149PT cells assessed as accumulation of cells at G2/M phase at 0.5 uM incubated for 24 hrs by propidium iodide/RNase A staining based flow cytometry (reference value: 5.54 %); format: functional
SUM149PT [28] = experiment: Induction of apoptosis in human SUM149PT cells assessed as upregulation of cleaved PARP expression incubated for 48 hrs by Western blotting analysis; format: functional, cell-based
SUM149PT [29] = experiment: Induction of apoptosis in human SUM149PT cells assessed as early apoptotic cells at 0.5 uM incubated for 24 hrs by Annexin V-FITC/PI staining based flow cytometry (reference value: 2.59 %); format: functional
[30] = target: Poly [ADP-ribose] polymerase 1 (Homo sapiens, UniProt P09874); experiment: Inhibition of PARP-1 in human SUM149PT cells incubated for 48 hrs by HRP-ELISA; format: cell-based
Mitochondrial membrane [31] = experiment: Induction of mitochondrial membrane potential loss in human SUM149PT cells incubated for 48 hrs by JC-1 staining based confocal laser scanning microscopic analysis
SUM149PT [32] = experiment: Induction of apoptosis in human SUM149PT cells assessed as early apoptotic cells at 0.1 uM incubated for 48 hrs by Annexin V-FITC/PI staining based flow cytometry (reference value: 2.28 %); format: functional
SUM149PT [33] = experiment: Induction of DNA double strand breaks in human SUM149PT cells assessed as increase in gamma-H2AX level in nucleus incubated for 48 hrs by immunofluorescence analysis; format: functional, cell-based

Poly [ADP-ribose] polymerase 1, sequence (P09874 whole entry): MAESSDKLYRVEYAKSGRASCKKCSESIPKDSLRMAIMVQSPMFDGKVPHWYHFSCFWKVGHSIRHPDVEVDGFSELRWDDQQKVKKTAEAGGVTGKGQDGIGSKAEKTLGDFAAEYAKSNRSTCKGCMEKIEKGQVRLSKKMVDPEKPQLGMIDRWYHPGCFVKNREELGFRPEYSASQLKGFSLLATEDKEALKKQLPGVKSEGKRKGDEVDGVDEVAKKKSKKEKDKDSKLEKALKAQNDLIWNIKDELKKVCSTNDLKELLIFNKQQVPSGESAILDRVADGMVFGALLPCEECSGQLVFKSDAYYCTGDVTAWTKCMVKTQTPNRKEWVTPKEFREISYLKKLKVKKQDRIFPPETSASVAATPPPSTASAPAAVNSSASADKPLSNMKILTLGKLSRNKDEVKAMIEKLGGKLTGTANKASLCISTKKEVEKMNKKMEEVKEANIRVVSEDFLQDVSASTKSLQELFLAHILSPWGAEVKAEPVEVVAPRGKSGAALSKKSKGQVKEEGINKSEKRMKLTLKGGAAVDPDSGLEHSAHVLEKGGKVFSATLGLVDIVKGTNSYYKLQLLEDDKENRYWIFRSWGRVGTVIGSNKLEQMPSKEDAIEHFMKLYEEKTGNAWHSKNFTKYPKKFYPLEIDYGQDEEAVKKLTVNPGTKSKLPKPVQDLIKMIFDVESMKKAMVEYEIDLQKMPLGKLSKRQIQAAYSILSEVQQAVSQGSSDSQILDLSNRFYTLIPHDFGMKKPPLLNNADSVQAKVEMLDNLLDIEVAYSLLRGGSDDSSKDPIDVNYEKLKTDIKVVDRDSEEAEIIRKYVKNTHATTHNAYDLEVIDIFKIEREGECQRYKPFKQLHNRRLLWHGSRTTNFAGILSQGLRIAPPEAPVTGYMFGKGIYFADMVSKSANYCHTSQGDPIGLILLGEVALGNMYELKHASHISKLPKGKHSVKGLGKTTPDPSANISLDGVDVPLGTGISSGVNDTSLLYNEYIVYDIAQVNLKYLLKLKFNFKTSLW
Poly [ADP-ribose] polymerase 2, sequence (Q9UGN5 whole entry): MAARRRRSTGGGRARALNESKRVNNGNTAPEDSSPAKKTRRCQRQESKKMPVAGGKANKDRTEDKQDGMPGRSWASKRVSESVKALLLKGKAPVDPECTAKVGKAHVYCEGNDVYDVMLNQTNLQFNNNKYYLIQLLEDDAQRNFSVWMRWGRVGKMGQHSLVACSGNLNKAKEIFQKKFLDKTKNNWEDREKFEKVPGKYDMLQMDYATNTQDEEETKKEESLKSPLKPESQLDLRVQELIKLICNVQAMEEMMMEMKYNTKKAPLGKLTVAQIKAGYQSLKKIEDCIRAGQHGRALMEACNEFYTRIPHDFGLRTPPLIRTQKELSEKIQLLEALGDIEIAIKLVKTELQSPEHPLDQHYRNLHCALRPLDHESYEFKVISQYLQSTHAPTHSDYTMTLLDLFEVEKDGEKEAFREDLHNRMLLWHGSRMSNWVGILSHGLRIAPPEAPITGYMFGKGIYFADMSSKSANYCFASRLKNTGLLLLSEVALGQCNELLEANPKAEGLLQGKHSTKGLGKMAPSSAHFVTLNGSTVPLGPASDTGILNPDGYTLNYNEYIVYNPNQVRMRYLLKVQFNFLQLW

Compound `COc1cccc(-c2cc3cc(F)cc(C(N)=O)c3oc2=O)c1` has a viability at 2 µM (SUM149PT [1]) of 61%, an inhibition at 20 µM (MDA-MB-436) of under 40% and a viability at 0.5 µM (SUM149PT [2]) of 86.6%. For the same compound, the Activity (SUM149PT [3]) was “Active”, the Activity (SUM149PT [4]) was 59.5% and the IC50 (SUM149PT [5]) was 620 nM. The Activity (SUM149PT [6]) was 17.4%, the Activity (SUM149PT [7]) was 29.6% and the IC50 (CAPAN-1 [8]) was 4260 nM. The inhibition at 20 µM (HCC1937 [9]) was over 60%, the inhibition at 20 µM (SUM149PT [10]) was over 80% and the Activity (SUM149PT [11]) was 1.86%. The Activity (SUM149PT [12]) was 38.3%, the Activity (SUM149PT [13]) was “Dose-dependent-effect” and the Activity (SUM149PT [14]) was 13.4%. The IC50 (HCC1937 [15]) was 1910 nM, the Activity (SUM149PT [16]) was 13.5% and the Activity (SUM149PT [17]) was 6.87%. For the same compound, the Activity (SUM149PT [18]) was “Dose-dependent-effect”, the Activity (SUM149PT [19]) was 3.96% and the viability at 0.1 µM (SUM149PT [20]) was 91.5%. The Activity (Mitochondrial membrane [21]) was “Active”, the Activity (SUM149PT [22]) was 25.3% and the IC50 [23] was 6.45 nM. It also gave an Activity (SUM149PT [24]) of 2.31%, an Activity (SUM149PT [25]) of 2.61% and an inhibition at 5 µM (CAPAN-1 [26]) of over 50%. The Activity (SUM149PT [27]) was 22.3%, the Activity (SUM149PT [28]) was “Dose-dependent-effect” and the Activity (SUM149PT [29]) was 5.61%. The IC50 [30] was 2.53 nM, the Activity (Mitochondrial membrane [31]) was “Dose-dependent-effect” and the Activity (SUM149PT [32]) was 5.45%. The Activity (SUM149PT [33]) was “Dose-dependent-effect”.
